Peptide text beside a SMILES is read from it.

This is an account of results in ChEMBL document CHEMBL5223064, “A review of the latest research on Mpro targeting SARS-COV inhibitors” (RSC Med Chem, 2021).

One data set has as its system SARS-CoV-2. As to the kind of experiment: Antiviral activity against SARS-CoV-2 USA-WA1/2020 infected in African green monkey Vero 76 cells assessed as reduction in virus-induced cytopathic effect measured after 5 days by neutral red dye uptake analysis. Conditions: Severe acute respiratory syndrome coronavirus 2, USA-WA1/2020, Vero 76, 120 h. The data set is classed as functional, organism-based. In general terms: Cytopathic effects are the visible damage that an infection or toxin causes in cultured cells.

The nature of data set [1]: Bioavailability in CD-1 mouse at 20 mg/kg, ip measured for 24 hrs by LC-MS/MS analysis. The data set is classed as ADME, organism-based. Conditions: in vivo.

Take `CC(C)C[C@H](NC(=O)OCc1ccccc1)C(=O)N[C@@H](C[C@@H]1CCNC1=O)C(O)S(=O)(=O)O` (some centres undefined): the EC50 in the data set with SARS-CoV-2 amounted to 490 nM.
With `O=C[C@H](C[C@@H]1CCNC1=O)NC(=O)[C@H](Cc1cccc(F)c1)NC(=O)c1cc2ccccc2[nH]1`, the bioavailability in data set [1] is 80%.
Consider `CSCC[C@@H](C=O)NC(=O)[C@H](CC(C)C)NC(=O)[C@H](CC(C)C)NC(C)=O` (Ac-Leu-Leu-Met-aldehyde), for which the EC50 in the data set on SARS-CoV-2 stood at 490 nM.
Still for that read-out and setting: with `CC(C)(C)NC(=O)N[C@H](C(=O)N1C[C@H]2[C@@H]([C@H]1C(=O)NC(CC1CCC1)C(=O)C(N)=O)C2(C)C)C(C)(C)C` (some centres undefined) [BOCEPREVIR] the figure was 490 nM.

By EC50 is commonly meant the concentration needed to bring the measured effect to its halfway point. As usually defined, the bioavailability is dose-corrected exposure relative to a reference, in per cent.
